Laboratory results: the NIST ThermoML archive (doi:10.1021/je0499768)

Experiment: molar heat capacity at constant pressure
Conditions: 101.33 kPa

CCCO [propan-1-ol]
Conditions	molar heat capacity at constant pressure [J/K/mol]
5.01 K, Crystal	0.17
5.41 K, Crystal	0.22
6.14 K, Crystal	0.29
6.36 K, Crystal	0.35
7.33 K, Crystal	0.52
7.72 K, Crystal	0.61
8.72 K, Crystal	0.9
8.94 K, Crystal	0.94
10.13 K, Crystal	1.44
10.33 K, Crystal	1.49
11.74 K, Crystal	2.19
11.83 K, Crystal	2.23
13.48 K, Crystal	3.15
13.5 K, Crystal	3.19
15.36 K, Crystal	4.38
15.38 K, Crystal	4.4
17.37 K, Crystal	5.81
17.42 K, Crystal	5.83
19.52 K, Crystal	7.46
19.6 K, Crystal	7.53
21.78 K, Crystal	9.32
21.9 K, Crystal	9.44
24.15 K, Crystal	11.43
24.29 K, Crystal	11.57
26.63 K, Crystal	13.58
26.79 K, Crystal	13.71
29.24 K, Crystal	15.59
29.43 K, Crystal	15.75
32.1 K, Crystal	18.09
34.44 K, Crystal	20.16
36.72 K, Crystal	21.88
39.11 K, Crystal	23.5
41.56 K, Crystal	25.36
44.03 K, Crystal	27.19
46.52 K, Crystal	28.98
49.05 K, Crystal	30.75
51.61 K, Crystal	32.44
54.2 K, Crystal	34.01
56.81 K, Crystal	35.59
59.46 K, Crystal	37.12
62.13 K, Crystal	38.64
64.82 K, Crystal	40.12
67.54 K, Crystal	41.54
70.28 K, Crystal	42.95
73.03 K, Crystal	44.31
75.8 K, Crystal	45.65
78.58 K, Crystal	46.95
81.38 K, Crystal	48.22
84.17 K, Crystal	49.46
86.9 K, Crystal	50.65
89.55 K, Crystal	51.79
92.15 K, Crystal	52.87
94.68 K, Crystal	53.91
97.15 K, Crystal	54.9
98.26 K, Crystal	55.24
99.58 K, Crystal	55.88
101.41 K, Crystal	56.44
104.32 K, Crystal	57.81
107.19 K, Crystal	59.01
110.07 K, Crystal	60.14
112.95 K, Crystal	61.2
115.84 K, Crystal	62.28
118.73 K, Crystal	63.39
121.63 K, Crystal	64.43
124.53 K, Crystal	65.69
127.43 K, Crystal	66.87
130.34 K, Crystal	68.07
133.25 K, Crystal	69.29
136.16 K, Crystal	70.53
139.06 K, Crystal	71.9
141.97 K, Crystal	73.6
144.84 K, Crystal	79.58
153 K, Liquid	106.26
155.75 K, Liquid	106.33
158.49 K, Liquid	106.55
161.22 K, Liquid	106.79
163.93 K, Liquid	107.01
166.64 K, Liquid	107.32
169.34 K, Liquid	107.61
172.03 K, Liquid	107.88
174.71 K, Liquid	108.22
177.37 K, Liquid	108.49
180.03 K, Liquid	108.81
182.68 K, Liquid	109.05
185.32 K, Liquid	109.37
187.95 K, Liquid	109.64
190.57 K, Liquid	109.94
193.19 K, Liquid	110.41
195.79 K, Liquid	110.64
198.38 K, Liquid	110.93
200.97 K, Liquid	111.4
203.35 K, Liquid	111.76
205.56 K, Liquid	112.13
208.15 K, Liquid	112.54
211.11 K, Liquid	113.05
214.08 K, Liquid	113.58
217.04 K, Liquid	114.16
219.99 K, Liquid	114.78
222.92 K, Liquid	115.39
225.84 K, Liquid	116.05
228.74 K, Liquid	116.74
231.64 K, Liquid	117.43
234.52 K, Liquid	118.2
237.38 K, Liquid	118.92
240.23 K, Liquid	119.7
243.07 K, Liquid	120.56
245.89 K, Liquid	121.39
248.7 K, Liquid	122.27
251.5 K, Liquid	123.2
254.28 K, Liquid	123.87
257.05 K, Liquid	124.8
259.81 K, Liquid	125.83
262.55 K, Liquid	126.88
265.28 K, Liquid	127.98
267.99 K, Liquid	129.08
270.68 K, Liquid	130.22
273.36 K, Liquid	131.39
276.02 K, Liquid	132.62
278.67 K, Liquid	133.86
281.3 K, Liquid	135.13
283.91 K, Liquid	136.42
286.51 K, Liquid	137.76
289.09 K, Liquid	139.17
291.66 K, Liquid	140.59
294.2 K, Liquid	141.98
296.74 K, Liquid	143.51
299.25 K, Liquid	144.96
301.34 K, Liquid	146.08
303.15 K, Liquid	147.29
305.04 K, Liquid	148.45
306.99 K, Liquid	149.78
308.94 K, Liquid	151.07
310.9 K, Liquid	152.24
312.85 K, Liquid	153.55
314.81 K, Liquid	155.12
316.76 K, Liquid	156.37
318.71 K, Liquid	157.72
320.67 K, Liquid	159.16
322.62 K, Liquid	160.63
324.58 K, Liquid	162.08
326.53 K, Liquid	163.47
328.49 K, Liquid	165.03
330.44 K, Liquid	166.52
332.4 K, Liquid	168.01
334.35 K, Liquid	169.52
336.31 K, Liquid	171.04
338.26 K, Liquid	172.66
340.22 K, Liquid	174.2
342.17 K, Liquid	175.61
344.13 K, Liquid	177.2
346.1 K, Liquid	178.27
348.07 K, Liquid	180.29
350.04 K, Liquid	181.83
